Results as given in patent US20170143712A1, “Methods of Treating Cancers, Immune and Autoimmune Diseases, and Inflammatory Diseases Based on BTK Occupancy and BTK Resynthesis Rate” (Acerta Pharma B.V., priority 2014, published 2017).

Experiments:
[1] = system: BCR signaling through BTK; test: Anti-IgM induced CD86 and CD69 on splenocyte B cells of CIA mice; format: in vivo, mouse; conditions: splenocytes 3 hr after last dosing on day 14
Description: FIG. 45 illustrates changes in a functional measure of BCR signalling through the CD86 marker. Mouse splenocytes were isolated from spleens from mice that were part of the mouse CIA study semi-therapeutic protocol, 3 hr after the last dosing on day 14 of the treatment and cryopreserved. After thawing, inhibition of anti-IgM-induced PD markers CD86 and CD69 on mouse splenocyte B cells were measured. Error bars represent the standard deviation for the 3 sets of splenocytes analyzed.
FIG. 46 illustrates changes in a functional measure of BCR signalling through the CD69 marker. Mouse splenocytes were isolated from spleens from mice that were part of the mouse CIA study semi-therapeutic protocol, 3 hr after the last dosing on day 14 of the treatment and cryopreserved. After thawing, inhibition of anti-IgM-induced PD markers CD86 and CD69 on mouse splenocyte B cells were measured. Error bars represent the standard deviation for the 3 sets of splenocytes analyzed.
Inhibition of the BCR signaling through BTK was evaluated by ex vivo stimulation of splenocytes using IgM and evaluation of CD86 and CD69 as functional responses of BCR stimulation.

[2] = system: established type II collagen-induced arthritis (CIA) in DBA/1 mice; test: 14-day mouse established type II collagen-induced arthritis (CIA), PO QD (Example 10); format: in vivo; conditions: for AUC (All Paws) - Corrected for Initial Score / Change in Body Weight (g) / Histopathology Summed Score Knees / Histopathology Summed Score Paws / Histopathology Summed Score Six-Joints / Paw Score AUC (All Paws): mean(SE); for disease-induced body weight loss (percent change from baseline) vs vehicle controls / arthritis scores measured daily vs vehicle controls: p<0.05 on the days printed
Description: Prior to dosing, the candidate anti-inflammatory agents were reconstituted either by vortexing or stirring. The candidate anti-inflammatory agents were administered to the DBA/1 mice daily (QD) by the oral (PO) route.
Immunization with heterologous type II collagen (CII) induces arthritis in mice of the DBA/1 strain, which is genetically susceptible to this disease. To develop an experimental model of autoimmunity more adequate for the study of human rheumatoid arthritis (RA), male DBA/1 mice were injected intradermally (ID) with bovine type II collagen to induce arthritis as reported by Trentham et al (Trentham D E, Townes A S, Kang A H Autoimmunity to type II collagen: an experimental model of arthritis. J. Exper. Med. 1977, 146:857-868) and Bendele A (Bendele A, Animal models of rheumatoid arthritis. J. Musculoskelet. Neuronal Interact. 2001, 1(4):377-85). Male DBA/1 mice (n=114) that were 6-7 weeks old and weighed approximately 18-27 grams (mean 22 g) at enrollment (arthritis day 1) were obtained from Taconic Farms, Inc. The male DBA/1 mice were at least 6 weeks old at time of first immunization and were housed 3-5/cage in shoe-box polycarbonate cages with wire tops, wood chip bedding, and suspended food and water bottles. These animals were identified by a distinct number of ink marks at the base of the tail delineating animal number. After enrollment, all cages were labeled with protocol number, group number, and animal numbers.
The male DBA/1 (n=10/group for arthritis) were anaesthetized with Isoflurane, shaved at the base of the tail, and injected intradermally with 150 μL of Freund's Complete Adjuvant (Difco, Detroit, Mich.) containing bovine type II collagen (BBP, batch #7) (1 mg/ml) at the base of the tail on day 0 and again on day 21. […] Randomization was done after swelling was obviously established in at least one paw (score of 1) and attempts were made to ensure approximately equal mean scores of 0.5-1 across groups at the time of enrollment. […] The male DBA/1 mice were terminated on arthritis day 14 (3 hours post-dose).
Efficacy evaluation of the administered anti-inflammatory agents was based on animal body weights, clinical arthritis scores, arthritis scores expressed as area under the curve (AUC), and histopathology on fore paws, hind paws, and knees. Histopathology results were expressed as 4 paws, knees only, or 6 joints (knees included). Day 13 was used as the endpoint for analysis of body weight change since the male DBA/1 mice were fasted overnight prior to necropsy on day 14.

[3] = 5 mg/kg PO QD, therapeutic paws only
[4] = 25 mg/kg PO QD, therapeutic paws only

Structure (SMILES): CC#CC(=O)N1CCC[C@H]1c1nc(-c2ccc(C(=O)Nc3ccccn3)cc2)c2c(N)nccn12 [Formula (II), (S)-4-(8-amino-3-(1-(but-2-ynoyl)pyrrolidin-2-yl)imidazo[1,5-a]pyrazin-1-yl)-N-(pyridin-2-yl)benzamide]
- BCR-mediated signaling (anti-IgM induced CD86 and CD69) [1]: dose-responsive decreases in BCR-mediated signaling
- AUC (All Paws) - Corrected for Initial Score ([2]; 1 mg/kg PO QD): 14.99(3.62)
- Change in Body Weight (g) ([2]; 1 mg/kg PO QD): −0.36(0.77) g
- Histopathology Summed Score Knees ([2]; 1 mg/kg PO QD): 4.90(1.32)
- Histopathology Summed Score Paws ([2]; 1 mg/kg PO QD): 7.95(1.54)
- Histopathology Summed Score Six-Joints ([2]; 1 mg/kg PO QD): 6.93(1.22)
- Paw Score AUC (All Paws) ([2]; 1 mg/kg PO QD): 22.14(4.11)
- disease-induced body weight loss (percent change from baseline) vs vehicle controls ([2]; 1 mg/kg PO QD): significantly inhibited toward normal
- daily arthritis scores vs vehicle controls ([2]; 1 mg/kg PO QD, prophylactic paws): significantly reduced toward normal
- knee histopathology parameters ([2]; 1 mg/kg, compared to 1 mg/kg ibrutinib): significantly improved
- six-joint histopathology, reduction of summed scores vs vehicle controls ([2]; 5 mg/kg PO QD): 86%
- total body weight loss from enrollment to study termination ([2]; 5 mg/kg PO QD): significantly inhibited
- Clinical arthritis scores AUC, reduction vs vehicle controls ([2]; 5 mg/kg PO QD, all paws): 82%
- Clinical arthritis scores AUC, reduction when corrected for initial enrollment score ([2]; 5 mg/kg PO QD, all paws): 99%
- arthritis scores measured daily vs vehicle controls ([2]; 5 mg/kg PO QD, all paws): significantly reduced toward normal
- AUC (All Paws) - Corrected for Initial Score ([2]; 5 mg/kg PO QD): *0.43(2.76)
- Change in Body Weight (g) ([2]; 5 mg/kg PO QD): *1.23(0.52) g
- Histopathology Summed Score Knees ([2]; 5 mg/kg PO QD): *1.48(0.94)
- Histopathology Summed Score Paws ([2]; 5 mg/kg PO QD): *2.23(0.72)
- Histopathology Summed Score Six-Joints ([2]; 5 mg/kg PO QD): *1.98(0.69)
- Paw Score AUC (All Paws) ([2]; 5 mg/kg PO QD): *7.58(2.63)
- disease-induced body weight loss (percent change from baseline) vs vehicle controls ([2]; 5 mg/kg PO QD): significantly inhibited toward normal
- daily arthritis scores vs vehicle controls ([2]; 5 mg/kg PO QD, prophylactic paws): significantly reduced toward normal
- Clinical arthritis scores AUC, reduction vs vehicle controls ([2]; 5 mg/kg PO QD, prophylactic paws only): 94%
- daily arthritis scores vs vehicle controls ([2]; 5 mg/kg PO QD, therapeutic paws): significantly reduced toward normal
- Clinical arthritis scores AUC, reduction vs vehicle controls [2, 3]: 64%
- Clinical arthritis scores AUC, reduction when corrected for initial enrollment score [2, 3]: 110%
- six-joint histopathology, reduction of summed scores vs vehicle controls ([2]; 25 mg/kg PO QD): 93%
- total body weight loss from enrollment to study termination ([2]; 25 mg/kg PO QD): significantly inhibited
- Clinical arthritis scores AUC, reduction vs vehicle controls ([2]; 25 mg/kg PO QD, all paws): 95%
- Clinical arthritis scores AUC, reduction when corrected for initial enrollment score ([2]; 25 mg/kg PO QD, all paws): 115%
- arthritis scores measured daily vs vehicle controls ([2]; 25 mg/kg PO QD, all paws): significantly reduced toward normal
- AUC (All Paws) - Corrected for Initial Score ([2]; 25 mg/kg PO QD): *−5.24(1.36)
- Change in Body Weight (g) ([2]; 25 mg/kg PO QD): *1.01(0.66) g
- Histopathology Summed Score Knees ([2]; 25 mg/kg PO QD): *1.25(0.43)
- Histopathology Summed Score Paws ([2]; 25 mg/kg PO QD): *0.94(0.40)
- Histopathology Summed Score Six-Joints ([2]; 25 mg/kg PO QD): *1.04(0.36)
- Paw Score AUC (All Paws) ([2]; 25 mg/kg PO QD): *1.91(0.96)
- disease-induced body weight loss (percent change from baseline) vs vehicle controls ([2]; 25 mg/kg PO QD): significantly inhibited toward normal
- daily arthritis scores vs vehicle controls ([2]; 25 mg/kg PO QD, prophylactic paws): significantly reduced toward normal
- Clinical arthritis scores AUC, reduction vs vehicle controls ([2]; 25 mg/kg PO QD, prophylactic paws only): 100%
- daily arthritis scores vs vehicle controls ([2]; 25 mg/kg PO QD, therapeutic paws): significantly reduced toward normal
- Clinical arthritis scores AUC, reduction vs vehicle controls [2, 4]: 89%
- Clinical arthritis scores AUC, reduction when corrected for initial enrollment score [2, 4]: 152%
- spleen weights compared to vehicle controls ([2]; all dose groups PO QD): not significantly affected
